Test results from ChEMBL document CHEMBL1151757, “Synthesis, radiosynthesis, and biological evaluation of fluorine-18-labeled 2beta-carbo(fluoroalkoxy)-3beta-(3'-((Z)-2-haloethenyl)phenyl)nortropanes: candidate radioligands for in vivo imaging of the serotonin transporter with positron emission tomography” (J Med Chem, 2008).

How the values were obtained:
Midbrain [1] = assay: Drug uptake in anesthetized cynomolgus monkey brain midbrain after 95 mins postinjection; format: ADME, organism-based, Macaca fascicularis; design: unit not given here; conditions: in vivo
[2] = Drug uptake in anesthetized cynomolgus monkey brain occipital lobe after 27.5 mins postinjection; format: ADME, organism-based, Macaca fascicularis; conditions: in vivo
[3] = Drug uptake in anesthetized cynomolgus monkey brain frontal lobe after 22.5 mins postinjection; format: ADME, organism-based, Macaca fascicularis; conditions: in vivo, 0.375 h
Medulla [4] = assay: Drug uptake in anesthetized cynomolgus monkey brain medulla after 55 mins postinjection; format: ADME, organism-based, Macaca fascicularis; conditions: in vivo
[5] = Ratio of drug uptake in putamen to cerebellum in anesthetized cynomolgus monkey after 0.5 mins postinjection; format: ADME, organism-based, Macaca fascicularis; conditions: in vivo
[6] = Drug uptake in anesthetized cynomolgus monkey brain cerebellum after 75 mins postinjection; format: ADME, organism-based, Macaca fascicularis; conditions: in vivo, 1.25 h
[7] = Drug uptake in anesthetized cynomolgus monkey brain occipital lobe after 145 mins postinjection; format: ADME, organism-based, Macaca fascicularis; conditions: in vivo
Pons [8] = assay: Drug uptake in anesthetized cynomolgus monkey brain pons after 45 mins postinjection; format: ADME, organism-based, Macaca fascicularis; conditions: in vivo, 0.75 h
[9] = Ratio of drug uptake in occipital lobe to cerebellum in anesthetized cynomolgus monkey after 4.5 mins postinjection; format: ADME, organism-based, Macaca fascicularis; conditions: in vivo, 0.075 h
[10] = Drug uptake in anesthetized cynomolgus monkey brain frontal lobe after 115 mins postinjection; format: ADME, organism-based, Macaca fascicularis; conditions: in vivo
[11] = Drug uptake in anesthetized cynomolgus monkey brain frontal lobe after 145 mins postinjection; format: ADME, organism-based, Macaca fascicularis; conditions: in vivo
Caudate [12] = assay: Drug uptake in anesthetized cynomolgus monkey brain caudate after 4.5 mins postinjection; format: ADME, organism-based, Macaca fascicularis, Caudate nucleus; conditions: in vivo, 0.075 h
[13] = Drug uptake in anesthetized cynomolgus monkey brain cerebellum after 18.5 mins postinjection; format: ADME, organism-based, Macaca fascicularis; conditions: in vivo
Thalamus [14] = assay: Drug uptake in anesthetized cynomolgus monkey brain thalamus after 235 mins postinjection; format: ADME, organism-based, Macaca fascicularis; design: unit not given here; conditions: in vivo
Thalamus [15] = assay: Drug uptake in anesthetized cynomolgus monkey brain thalamus after 22.5 mins postinjection; format: ADME, organism-based, Macaca fascicularis; design: unit not given here; conditions: in vivo, 0.375 h
[16] = Drug uptake in anesthetized cynomolgus monkey brain cerebellum after 85 mins postinjection; format: ADME, organism-based, Macaca fascicularis; conditions: in vivo
Putamen [17] = assay: Drug uptake in anesthetized cynomolgus monkey brain putamen after 1.5 mins postinjection; format: ADME, organism-based, Macaca fascicularis; conditions: in vivo, 0.025 h
Caudate [18] = assay: Drug uptake in anesthetized cynomolgus monkey brain caudate after 27.5 mins postinjection; format: ADME, organism-based, Macaca fascicularis, Caudate nucleus; conditions: in vivo
Midbrain [19] = assay: Drug uptake in anesthetized cynomolgus monkey brain midbrain after 135 mins postinjection; format: ADME, organism-based, Macaca fascicularis; conditions: in vivo, 2.25 h
Pons [20] = assay: Drug uptake in anesthetized cynomolgus monkey brain pons after 135 mins postinjection; format: ADME, organism-based, Macaca fascicularis; conditions: in vivo, 2.25 h
Midbrain [21] = assay: Drug uptake in anesthetized cynomolgus monkey brain midbrain after 15.5 mins postinjection; format: ADME, organism-based, Macaca fascicularis; design: unit not given here; conditions: in vivo
Midbrain [22] = assay: Drug uptake in anesthetized cynomolgus monkey brain midbrain after 215 mins postinjection; format: ADME, organism-based, Macaca fascicularis; conditions: in vivo
Thalamus [23] = assay: Drug uptake in anesthetized cynomolgus monkey brain thalamus after 145 mins postinjection; format: ADME, organism-based, Macaca fascicularis; design: unit not given here; conditions: in vivo
Putamen [24] = assay: Drug uptake in anesthetized cynomolgus monkey brain putamen after 12.5 mins postinjection; format: ADME, organism-based, Macaca fascicularis; design: unit not given here; conditions: in vivo
[25] = Drug uptake in anesthetized cynomolgus monkey brain frontal lobe after 45 mins postinjection; format: ADME, organism-based, Macaca fascicularis; conditions: in vivo, 0.75 h
Midbrain [26] = assay: Drug uptake in anesthetized cynomolgus monkey brain midbrain after 105 mins postinjection; format: ADME, organism-based, Macaca fascicularis; design: unit not given here; conditions: in vivo, 1.75 h
[27] = Ratio of drug uptake in frontal lobe to cerebellum in anesthetized cynomolgus monkey after 125 mins postinjection; format: ADME, organism-based, Macaca fascicularis; conditions: in vivo
[28] = Ratio of drug uptake in midbrain to cerebellum in anesthetized cynomolgus monkey after 85 mins postinjection; format: ADME, organism-based, Macaca fascicularis; conditions: in vivo
Thalamus [29] = assay: Drug uptake in anesthetized cynomolgus monkey brain thalamus after 75 mins postinjection; format: ADME, organism-based, Macaca fascicularis; design: unit not given here; conditions: in vivo, 1.25 h
[30] = Ratio of drug uptake in frontal lobe to cerebellum in anesthetized cynomolgus monkey after 75 mins postinjection; format: ADME, organism-based, Macaca fascicularis; conditions: in vivo, 1.25 h
[31] = Drug uptake in anesthetized cynomolgus monkey brain occipital lobe after 55 mins postinjection; format: ADME, organism-based, Macaca fascicularis; conditions: in vivo
[32] = Ratio of drug uptake in caudate to cerebellum in anesthetized cynomolgus monkey after 135 mins postinjection; format: ADME, organism-based, Macaca fascicularis; conditions: in vivo, 2.25 h
Pons [33] = assay: Drug uptake in anesthetized cynomolgus monkey brain pons after 125 mins postinjection; format: ADME, organism-based, Macaca fascicularis; conditions: in vivo
[34] = Drug uptake in anesthetized cynomolgus monkey brain frontal lobe after 9.5 mins postinjection; format: ADME, organism-based, Macaca fascicularis; conditions: in vivo
Putamen [35] = assay: Drug uptake in anesthetized cynomolgus monkey brain putamen after 75 mins postinjection; format: ADME, organism-based, Macaca fascicularis; design: unit not given here; conditions: in vivo, 1.25 h
[36] = Ratio of drug uptake in pons to cerebellum in anesthetized cynomolgus monkey after 1.5 mins postinjection; format: ADME, organism-based, Macaca fascicularis; conditions: in vivo, 0.025 h
Pons [37] = assay: Drug uptake in anesthetized cynomolgus monkey brain pons after 235 mins postinjection; format: ADME, organism-based, Macaca fascicularis; conditions: in vivo
[38] = Drug uptake in anesthetized cynomolgus monkey brain cerebellum after 2.5 mins postinjection; format: ADME, organism-based, Macaca fascicularis; conditions: in vivo
Putamen [39] = assay: Drug uptake in anesthetized cynomolgus monkey brain putamen after 175 mins postinjection; format: ADME, organism-based, Macaca fascicularis; conditions: in vivo
[40] = Drug uptake in anesthetized cynomolgus monkey brain cerebellum after 65 mins postinjection; format: ADME, organism-based, Macaca fascicularis; conditions: in vivo
Caudate [41] = assay: Drug uptake in anesthetized cynomolgus monkey brain caudate after 125 mins postinjection; format: ADME, organism-based, Macaca fascicularis, Caudate nucleus; conditions: in vivo
[42] = Drug uptake in anesthetized cynomolgus monkey brain cerebellum after 175 mins postinjection; format: ADME, organism-based, Macaca fascicularis; conditions: in vivo
Putamen [43] = assay: Drug uptake in anesthetized cynomolgus monkey brain putamen after 65 mins postinjection; format: ADME, organism-based, Macaca fascicularis; design: unit not given here; conditions: in vivo
Putamen [44] = assay: Drug uptake in anesthetized cynomolgus monkey brain putamen after 2.5 mins postinjection; format: ADME, organism-based, Macaca fascicularis; conditions: in vivo
[45] = Drug uptake in anesthetized cynomolgus monkey brain cerebellum after 4.5 mins postinjection; format: ADME, organism-based, Macaca fascicularis; conditions: in vivo, 0.075 h
[46] = Ratio of drug uptake in medulla to cerebellum in anesthetized cynomolgus monkey after 155 mins postinjection; format: ADME, organism-based, Macaca fascicularis; conditions: in vivo
[47] = Drug uptake in anesthetized cynomolgus monkey brain frontal lobe after 15.5 mins postinjection; format: ADME, organism-based, Macaca fascicularis; conditions: in vivo
[48] = Ratio of drug uptake in frontal lobe to cerebellum in anesthetized cynomolgus monkey after 3.5 mins postinjection; format: ADME, organism-based, Macaca fascicularis; conditions: in vivo
[49] = Ratio of drug uptake in thalamus to cerebellum in anesthetized cynomolgus monkey after 9.5 mins postinjection; format: ADME, organism-based, Macaca fascicularis; conditions: in vivo
Caudate [50] = assay: Drug uptake in anesthetized cynomolgus monkey brain caudate after 35 mins postinjection; format: ADME, organism-based, Macaca fascicularis, Caudate nucleus; conditions: in vivo
[51] = Ratio of drug uptake in frontal lobe to cerebellum in anesthetized cynomolgus monkey after 145 mins postinjection; format: ADME, organism-based, Macaca fascicularis; conditions: in vivo
Medulla [52] = assay: Drug uptake in anesthetized cynomolgus monkey brain medulla after 145 mins postinjection; format: ADME, organism-based, Macaca fascicularis; conditions: in vivo
[53] = Drug uptake in anesthetized cynomolgus monkey brain occipital lobe after 215 mins postinjection; format: ADME, organism-based, Macaca fascicularis; conditions: in vivo
Pons [54] = assay: Drug uptake in anesthetized cynomolgus monkey brain pons after 75 mins postinjection; format: ADME, organism-based, Macaca fascicularis; conditions: in vivo, 1.25 h
[55] = Drug uptake in anesthetized cynomolgus monkey brain cerebellum after 165 mins postinjection; format: ADME, organism-based, Macaca fascicularis; conditions: in vivo, 2.75 h
Midbrain [56] = assay: Drug uptake in anesthetized cynomolgus monkey brain midbrain after 35 mins postinjection; format: ADME, organism-based, Macaca fascicularis; design: unit not given here; conditions: in vivo
[57] = Ratio of drug uptake in medulla to cerebellum in anesthetized cynomolgus monkey after 12.5 mins postinjection; format: ADME, organism-based, Macaca fascicularis; conditions: in vivo
[58] = Drug uptake in anesthetized cynomolgus monkey brain occipital lobe after 18.5 mins postinjection; format: ADME, organism-based, Macaca fascicularis; conditions: in vivo
Putamen [59] = assay: Drug uptake in anesthetized cynomolgus monkey brain putamen after 225 mins postinjection; format: ADME, organism-based, Macaca fascicularis; conditions: in vivo, 3.75 h
[60] = Drug uptake in anesthetized cynomolgus monkey brain occipital lobe after 135 mins postinjection; format: ADME, organism-based, Macaca fascicularis; conditions: in vivo, 2.25 h
Caudate [61] = assay: Drug uptake in anesthetized cynomolgus monkey brain caudate after 75 mins postinjection; format: ADME, organism-based, Macaca fascicularis, Caudate nucleus; conditions: in vivo, 1.25 h
[62] = Ratio of drug uptake in putamen to cerebellum in anesthetized cynomolgus monkey after 155 mins postinjection; format: ADME, organism-based, Macaca fascicularis; conditions: in vivo
[63] = Ratio of drug uptake in medulla to cerebellum in anesthetized cynomolgus monkey after 85 mins postinjection; format: ADME, organism-based, Macaca fascicularis; conditions: in vivo
[64] = Octanol-water partition coefficient, log P at pH 7.4 by shake-flask method; format: physicochemical

With O=C(OCCC[18F])C1C2CCC(CC1c1cccc(/C=C\Br)c1)N2 (centres undefined) the Drug uptake (Midbrain [1]) was 5.79, the Drug uptake [2] was 4.71 and the Drug uptake [3] was 3.74. For the same molecule, the Drug uptake (Medulla [4]) was 5.66, the Ratio [5] was 0.8 and the Drug uptake [6] was 4.02. For the same molecule, the Drug uptake [7] was 3.5, the Drug uptake (Pons [8]) was 4.85 and the Ratio [9] was 0.7. For the same molecule, the Drug uptake [10] was 3.2, the Drug uptake [11] was 2.85 and the Drug uptake (Caudate [12]) was 2.17. For the same molecule, the Drug uptake [13] was 6.08, the Drug uptake (Thalamus [14]) was 3.48 and the Drug uptake (Thalamus [15]) was 5.02. The Drug uptake [16] was 3.83, the Drug uptake (Putamen [17]) was 0.3 and the Drug uptake (Caudate [18]) was 4.94. It also gave a Drug uptake (Midbrain [19]) of 5.36, a Drug uptake (Pons [20]) of 4.03 and a Drug uptake (Midbrain [21]) of 5.7. For the same molecule, the Drug uptake (Midbrain [22]) was 4.58, the Drug uptake (Thalamus [23]) was 4.62 and the Drug uptake (Putamen [24]) was 5.25. For the same molecule, the Drug uptake [25] was 3.72, the Drug uptake (Midbrain [26]) was 5.59 and the Ratio [27] was 0.9. For the same molecule, the Ratio [28] was 1.5, the Drug uptake (Thalamus [29]) was 5.33 and the Ratio [30] was 0.9. It also gave a Drug uptake [31] of 4.59, a Ratio [32] of 1.5 and a Drug uptake (Pons [33]) of 4.3. The Drug uptake [34] was 3.19, the Drug uptake (Putamen [35]) was 5.63 and the Ratio [36] was 0.8. It also gave a Drug uptake (Pons [37]) of 3.26, a Drug uptake [38] of 1.41 and a Drug uptake (Putamen [39]) of 4.1. The Drug uptake [40] was 4.29, the Drug uptake (Caudate [41]) was 4.63 and the Drug uptake [42] was 2.45. It also gave a Drug uptake (Putamen [43]) of 5.78, a Drug uptake (Putamen [44]) of 1.34 and a Drug uptake [45] of 3.51. For the same molecule, the Ratio [46] was 1.7, the Drug uptake [47] was 3.38 and the Ratio [48] was 0.5. It also gave a Ratio [49] of 0.7, a Drug uptake (Caudate [50]) of 5.13 and a Ratio [51] of 1. For the same molecule, the Drug uptake (Medulla [52]) was 4.91, the Drug uptake [53] was 2.7 and the Drug uptake (Pons [54]) was 4.67. The Drug uptake [55] was 2.57, the Drug uptake (Midbrain [56]) was 6.14 and the Ratio [57] was 1. The Drug uptake [58] was 4.35, the Drug uptake (Putamen [59]) was 3.51 and the Drug uptake [60] was 3.57. It also gave a Drug uptake (Caudate [61]) of 5.17, a Ratio [62] of 1.7 and a Ratio [63] of 1.4. The logD [64] was 1.87.
